Assays:
[1] = system: Mycobacterium tuberculosis H37Rv; experiment: Intracellular M. tuberculosis CFU count in infected bone marrow-derived macrophages after treatment with extract or anti-tuberculosis agent; type: cell-based; settings: C57BL/6 mouse BMDM, H37Rv MOI=1, anti-tuberculosis agent 100 ng/mL, 48 hours; FIG. 2
[2] = system: Mycobacterium tuberculosis H37Rv; experiment: MIC and FIC of Philadelphus tenuifolius leaf extract alone or combined with an anti-tuberculosis agent in Rv-infected BMDM; type: cell-based; settings: Rv-infected mouse BMDM, 48 hours; for MIC combination, RIF (antibiotic component): MIC of the antibiotic when combined with Philadelphus tenuifolius leaf extract; for MIC alone, Antibiotics: MIC = lowest concentration inhibiting more than 99% of bacterial growth

For `CC[C@@H](CO)NCCN[C@@H](CC)CO` [ethambutol], the “number of intracellular M. tuberculosis in mouse bone marrow-derived macrophages (CFU) vs infection control (Rv)” value [1] was “statistically significantly reduced”, the “MIC combination, RIF (antibiotic component)” value (from here on “MIC combination, RIF”) [2] was 0.3 µg/mL and the “MIC alone, Antibiotics” value [2] was 4 µg/mL.
In the case of `NNC(=O)c1ccncc1` [isoniazid], the “number of intracellular M. tuberculosis in mouse bone marrow-derived macrophages (CFU) vs infection control (Rv)” value [1] is reported as “statistically significantly reduced”, the “MIC combination, RIF” value [2] is reported as 0.03 µg/mL and the “MIC alone, Antibiotics” value [2] is reported as 0.1 µg/mL.
In the case of `CO[C@H]1/C=C/O[C@@]2(C)Oc3c(C)c(O)c4c(O)c(c(/C=N/N5CCN(C)CC5)c(O)c4c3C2=O)NC(=O)/C(C)=C\C=C\[C@H](C)[C@H](O)[C@@H](C)[C@@H](O)[C@@H](C)[C@H](OC(C)=O)[C@@H]1C` [rifampicin], the “MIC combination, RIF” value [2] is reported as 0.03 µg/mL and the “MIC alone, Antibiotics” value [2] is reported as 0.1 µg/mL.
